Literature values in publication PMC2933614, “Quantitative in vitro and in vivo pharmacological profile of CE-178253, a potent and selective cannabinoid type 1 (CB1) Receptor Antagonist” (BMC Pharmacology, 2010).

Tests used:
CB1 receptor = test system: CB1 receptor; design: method as in PMID 17327489; conditions: cited from earlier work
[1] = design: method as in PMID 12055133; conditions: 0.5 mg/kg; 2-AG-mediated hyperphagia; cited from earlier work

Row | Compound | Receptor occupancy required for maximal weight loss efficacy (CB1 receptor) | Attenuation of FI [1]
1 | C[C@H](NC(=O)C(C)(C)Oc1ccc(C(F)(F)F)cn1)[C@@H](Cc1ccc(Cl)cc1)c1cccc(C#N)c1 [taranabant] | 60-90% | –
2 | Cc1c(C(=O)NN2CCCCC2)nn(-c2ccc(Cl)cc2Cl)c1-c1ccc(Cl)cc1 [SR141716A] | – | ~ 50%
